The record followed here is ChEMBL document CHEMBL5465560, “Selectivity Literature for EUbOPEN Chemogenomic Library” (2024).

The structures appear in SMILES notation. Where only a bound is given, the exact number is not on record here.

Assay [1] deals with RAF proto-oncogene serine/threonine-protein kinase (Homo sapiens) (UniProt P04049). The following applies: at 10 µM.
Assay [2] addresses T1, Ephrin type-B receptor 2 (Homo sapiens) (UniProt P29323).
T1 sequence (whole entry): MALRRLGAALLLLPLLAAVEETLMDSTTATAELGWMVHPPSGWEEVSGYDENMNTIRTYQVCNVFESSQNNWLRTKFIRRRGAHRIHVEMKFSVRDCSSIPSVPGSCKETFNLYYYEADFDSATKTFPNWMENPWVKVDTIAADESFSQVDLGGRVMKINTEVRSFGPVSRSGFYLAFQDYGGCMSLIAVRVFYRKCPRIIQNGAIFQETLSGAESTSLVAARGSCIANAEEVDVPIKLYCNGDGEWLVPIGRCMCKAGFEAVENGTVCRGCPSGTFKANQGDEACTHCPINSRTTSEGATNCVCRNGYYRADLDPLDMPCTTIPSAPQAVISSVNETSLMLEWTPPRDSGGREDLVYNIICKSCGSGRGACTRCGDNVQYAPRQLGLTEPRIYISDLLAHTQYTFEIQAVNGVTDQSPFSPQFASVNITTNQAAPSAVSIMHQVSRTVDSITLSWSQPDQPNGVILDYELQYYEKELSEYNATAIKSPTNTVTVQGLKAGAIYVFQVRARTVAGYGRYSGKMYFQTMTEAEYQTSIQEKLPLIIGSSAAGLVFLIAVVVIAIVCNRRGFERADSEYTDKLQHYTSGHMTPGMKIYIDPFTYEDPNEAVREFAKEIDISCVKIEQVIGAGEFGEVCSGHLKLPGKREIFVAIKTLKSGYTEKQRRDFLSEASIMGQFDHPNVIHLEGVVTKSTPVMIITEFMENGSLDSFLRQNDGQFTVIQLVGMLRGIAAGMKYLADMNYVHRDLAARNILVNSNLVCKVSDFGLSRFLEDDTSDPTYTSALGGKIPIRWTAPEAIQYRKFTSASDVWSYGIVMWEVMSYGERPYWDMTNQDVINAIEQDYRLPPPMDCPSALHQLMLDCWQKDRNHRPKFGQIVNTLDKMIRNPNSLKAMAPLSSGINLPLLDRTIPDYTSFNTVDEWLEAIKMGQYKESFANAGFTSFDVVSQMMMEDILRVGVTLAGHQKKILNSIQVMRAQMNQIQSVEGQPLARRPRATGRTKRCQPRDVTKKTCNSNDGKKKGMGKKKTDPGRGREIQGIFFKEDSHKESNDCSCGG
In words: Selectivity interaction (KinomeScan (DiscoverX)) EUB0000655a EPHB2. The following applies: at 10 µM.

Assay [3] addresses T2, 5-hydroxytryptamine receptor 2C (Homo sapiens) (UniProt P28335).
T2 sequence (whole entry): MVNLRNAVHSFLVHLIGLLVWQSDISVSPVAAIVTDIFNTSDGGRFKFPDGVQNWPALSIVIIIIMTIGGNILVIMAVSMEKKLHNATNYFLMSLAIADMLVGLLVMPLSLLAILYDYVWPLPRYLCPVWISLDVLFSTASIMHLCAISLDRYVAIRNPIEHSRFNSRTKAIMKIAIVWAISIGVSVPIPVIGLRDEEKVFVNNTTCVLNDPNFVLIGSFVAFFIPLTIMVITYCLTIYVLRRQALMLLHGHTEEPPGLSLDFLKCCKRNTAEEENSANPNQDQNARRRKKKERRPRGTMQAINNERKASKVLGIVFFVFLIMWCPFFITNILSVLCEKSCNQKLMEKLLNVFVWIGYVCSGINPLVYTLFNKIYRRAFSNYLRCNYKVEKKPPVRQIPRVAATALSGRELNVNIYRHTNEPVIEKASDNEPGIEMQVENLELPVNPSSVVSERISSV
In words: Selectivity interaction (Panel of kinases, GPCRs, ion channels and transporters (enzymatic assay)) EUB0000266bCl HTR2C.

Assay [4] deals with T3, Inhibitor of nuclear factor kappa-B kinase subunit alpha (Homo sapiens) (UniProt O15111).
T3 sequence (whole entry): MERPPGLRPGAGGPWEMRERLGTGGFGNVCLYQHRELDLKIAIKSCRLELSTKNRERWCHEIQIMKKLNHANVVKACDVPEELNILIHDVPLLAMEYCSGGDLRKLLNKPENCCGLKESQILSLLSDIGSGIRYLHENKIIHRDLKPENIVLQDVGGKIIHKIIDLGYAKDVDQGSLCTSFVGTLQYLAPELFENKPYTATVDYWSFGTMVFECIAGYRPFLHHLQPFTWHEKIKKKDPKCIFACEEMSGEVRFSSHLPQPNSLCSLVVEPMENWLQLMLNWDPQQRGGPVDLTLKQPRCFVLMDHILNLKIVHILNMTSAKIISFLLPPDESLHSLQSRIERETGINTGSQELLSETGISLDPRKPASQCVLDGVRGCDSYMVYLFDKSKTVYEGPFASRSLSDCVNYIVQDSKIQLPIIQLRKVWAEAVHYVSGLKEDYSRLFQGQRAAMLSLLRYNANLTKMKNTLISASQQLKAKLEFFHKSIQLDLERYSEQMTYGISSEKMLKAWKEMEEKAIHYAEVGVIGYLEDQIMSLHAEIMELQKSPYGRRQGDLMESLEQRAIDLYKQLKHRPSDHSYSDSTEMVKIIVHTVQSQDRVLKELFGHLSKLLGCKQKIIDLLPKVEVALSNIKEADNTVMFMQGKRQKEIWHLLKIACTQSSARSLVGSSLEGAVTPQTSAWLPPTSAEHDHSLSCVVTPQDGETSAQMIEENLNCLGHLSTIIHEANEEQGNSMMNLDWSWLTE
As to the kind of experiment: Selectivity interaction (Kinase panel (Invitrogen)) EUB0000639a CHUK. Particulars: at 200 nM.

Assay [5] deals with Cyclin-dependent kinase 14 (Homo sapiens) (UniProt O94921). As to the kind of experiment: Selectivity interaction (ActivX KiNativ screen (kinase selectivity in THP-1 cell lysates)) EUB0000639a CDK14. The class given is subcellular. The following applies: lysate, at 0.2 µM.
The target in assay [6] is Cyclin-dependent kinase 11B (Homo sapiens) (UniProt P21127). The following applies: at 10 µM.
Assay [7] addresses Serine/threonine-protein kinase SIK1 (Homo sapiens) (UniProt P57059). As to the kind of experiment: Selectivity interaction (KinomeScan (DiscoverX)) EUB0000695a SIK1. Particulars: at 100 nM.
In assay [8] the target is Dual specificity protein kinase CLK4 (Homo sapiens, UniProt Q9HAZ1). As to the kind of experiment: Selectivity interaction (ProQinase) EUB0000171b CLK4.
The target in assay [9] is B1 bradykinin receptor (Homo sapiens) (UniProt P46663). In words: Selectivity interaction (Eurofins CEREP Diversity Profile (receptors and ion channels)) EUB0000279b BDKRB1. Particulars: at 10 µM.
For assay [10], the target named is LIM domain kinase 1 (Homo sapiens) (UniProt P53667). As to the kind of experiment: Selectivity interaction (KinomeScan (DiscoverX)) EUB0000618a LIMK1. Particulars: at 10 µM.
Assay [11] has as its target Homeodomain-interacting protein kinase 2 (Homo sapiens, UniProt Q9H2X6). In words: Selectivity interaction (KinomeScan (DiscoverX)) EUB0000618a HIPK2. The following applies: at 10 µM.
Assay [12] has as its target Calcium/calmodulin-dependent protein kinase type 1G (Homo sapiens) (UniProt Q96NX5). The following applies: at 10 µM.

Dual specificity protein kinase CLK4, sequence (Q9HAZ1 whole entry, looked up): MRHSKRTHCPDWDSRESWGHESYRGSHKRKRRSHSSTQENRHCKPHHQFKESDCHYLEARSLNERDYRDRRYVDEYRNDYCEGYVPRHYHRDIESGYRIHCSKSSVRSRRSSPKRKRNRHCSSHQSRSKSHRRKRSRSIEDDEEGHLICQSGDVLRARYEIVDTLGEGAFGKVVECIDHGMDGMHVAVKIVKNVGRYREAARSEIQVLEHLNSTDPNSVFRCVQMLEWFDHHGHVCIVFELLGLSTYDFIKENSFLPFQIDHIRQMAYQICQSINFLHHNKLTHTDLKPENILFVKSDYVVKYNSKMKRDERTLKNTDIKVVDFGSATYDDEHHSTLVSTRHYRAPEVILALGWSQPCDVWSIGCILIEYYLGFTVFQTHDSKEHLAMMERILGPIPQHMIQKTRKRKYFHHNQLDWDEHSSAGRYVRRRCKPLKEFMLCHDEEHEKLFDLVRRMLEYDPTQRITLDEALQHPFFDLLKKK
RAF proto-oncogene serine/threonine-protein kinase (Homo sapiens), sequence (P04049 whole entry): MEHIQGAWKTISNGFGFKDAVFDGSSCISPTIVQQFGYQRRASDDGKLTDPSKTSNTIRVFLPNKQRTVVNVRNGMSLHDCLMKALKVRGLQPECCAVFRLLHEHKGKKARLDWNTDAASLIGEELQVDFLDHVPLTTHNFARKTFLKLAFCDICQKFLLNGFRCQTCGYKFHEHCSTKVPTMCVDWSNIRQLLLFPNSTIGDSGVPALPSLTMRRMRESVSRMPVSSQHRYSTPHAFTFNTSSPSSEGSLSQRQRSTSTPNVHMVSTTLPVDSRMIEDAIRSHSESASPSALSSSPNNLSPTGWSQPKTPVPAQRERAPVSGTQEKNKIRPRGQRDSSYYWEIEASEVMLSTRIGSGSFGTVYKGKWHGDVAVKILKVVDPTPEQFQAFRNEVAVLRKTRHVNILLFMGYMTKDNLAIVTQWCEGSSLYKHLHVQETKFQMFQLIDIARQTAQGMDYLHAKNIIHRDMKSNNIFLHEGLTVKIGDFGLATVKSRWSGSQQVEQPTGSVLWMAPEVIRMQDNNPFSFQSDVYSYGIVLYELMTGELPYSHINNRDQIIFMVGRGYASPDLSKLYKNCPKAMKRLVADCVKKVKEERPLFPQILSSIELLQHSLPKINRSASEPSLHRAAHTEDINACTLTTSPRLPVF
B1 bradykinin receptor (Homo sapiens), sequence (P46663 whole entry, the tested form may be a part): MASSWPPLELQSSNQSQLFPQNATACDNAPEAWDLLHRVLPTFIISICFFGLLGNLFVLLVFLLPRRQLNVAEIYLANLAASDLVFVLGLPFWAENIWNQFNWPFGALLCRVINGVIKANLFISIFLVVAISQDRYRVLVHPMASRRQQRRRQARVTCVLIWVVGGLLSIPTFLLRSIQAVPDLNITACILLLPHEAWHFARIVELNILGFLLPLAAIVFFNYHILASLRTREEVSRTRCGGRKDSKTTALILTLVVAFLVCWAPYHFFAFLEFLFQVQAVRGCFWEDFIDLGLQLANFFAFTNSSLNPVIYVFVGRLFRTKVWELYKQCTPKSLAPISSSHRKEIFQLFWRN
Serine/threonine-protein kinase SIK1 (Homo sapiens), sequence (P57059 whole entry): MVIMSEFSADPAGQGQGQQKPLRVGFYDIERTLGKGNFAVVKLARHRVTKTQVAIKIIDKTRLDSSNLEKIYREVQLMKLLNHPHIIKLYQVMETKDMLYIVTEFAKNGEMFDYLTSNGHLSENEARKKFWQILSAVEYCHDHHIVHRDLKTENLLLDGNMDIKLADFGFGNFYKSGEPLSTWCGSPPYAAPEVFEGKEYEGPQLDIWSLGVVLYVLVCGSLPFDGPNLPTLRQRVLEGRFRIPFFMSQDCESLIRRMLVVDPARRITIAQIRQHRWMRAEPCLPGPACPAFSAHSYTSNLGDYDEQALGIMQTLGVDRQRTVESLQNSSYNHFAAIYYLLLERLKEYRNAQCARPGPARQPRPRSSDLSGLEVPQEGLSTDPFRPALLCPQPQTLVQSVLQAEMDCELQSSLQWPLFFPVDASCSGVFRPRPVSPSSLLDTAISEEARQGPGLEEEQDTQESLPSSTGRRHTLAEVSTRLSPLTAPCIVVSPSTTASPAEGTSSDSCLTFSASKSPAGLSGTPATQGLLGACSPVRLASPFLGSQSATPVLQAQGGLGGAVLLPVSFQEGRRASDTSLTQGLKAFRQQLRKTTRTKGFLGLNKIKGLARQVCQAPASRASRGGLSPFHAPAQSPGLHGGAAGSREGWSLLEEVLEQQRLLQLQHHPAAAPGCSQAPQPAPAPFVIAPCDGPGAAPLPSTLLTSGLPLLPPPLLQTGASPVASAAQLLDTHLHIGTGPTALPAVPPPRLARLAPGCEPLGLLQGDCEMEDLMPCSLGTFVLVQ
Cyclin-dependent kinase 14 (Homo sapiens), sequence (O94921 whole entry): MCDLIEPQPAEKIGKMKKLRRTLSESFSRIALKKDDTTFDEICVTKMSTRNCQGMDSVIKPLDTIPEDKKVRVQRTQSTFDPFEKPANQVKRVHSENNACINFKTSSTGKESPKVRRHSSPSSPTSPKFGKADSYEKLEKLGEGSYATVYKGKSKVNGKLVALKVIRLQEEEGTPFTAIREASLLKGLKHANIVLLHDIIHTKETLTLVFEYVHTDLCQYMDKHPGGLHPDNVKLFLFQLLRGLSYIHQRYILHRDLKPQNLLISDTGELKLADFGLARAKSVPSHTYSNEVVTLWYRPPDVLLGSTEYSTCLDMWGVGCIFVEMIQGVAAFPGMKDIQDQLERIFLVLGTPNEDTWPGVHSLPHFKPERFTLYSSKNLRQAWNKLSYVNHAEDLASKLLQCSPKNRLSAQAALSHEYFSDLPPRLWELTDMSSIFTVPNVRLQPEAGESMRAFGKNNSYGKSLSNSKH
Calcium/calmodulin-dependent protein kinase type 1G (Homo sapiens), sequence (Q96NX5 whole entry): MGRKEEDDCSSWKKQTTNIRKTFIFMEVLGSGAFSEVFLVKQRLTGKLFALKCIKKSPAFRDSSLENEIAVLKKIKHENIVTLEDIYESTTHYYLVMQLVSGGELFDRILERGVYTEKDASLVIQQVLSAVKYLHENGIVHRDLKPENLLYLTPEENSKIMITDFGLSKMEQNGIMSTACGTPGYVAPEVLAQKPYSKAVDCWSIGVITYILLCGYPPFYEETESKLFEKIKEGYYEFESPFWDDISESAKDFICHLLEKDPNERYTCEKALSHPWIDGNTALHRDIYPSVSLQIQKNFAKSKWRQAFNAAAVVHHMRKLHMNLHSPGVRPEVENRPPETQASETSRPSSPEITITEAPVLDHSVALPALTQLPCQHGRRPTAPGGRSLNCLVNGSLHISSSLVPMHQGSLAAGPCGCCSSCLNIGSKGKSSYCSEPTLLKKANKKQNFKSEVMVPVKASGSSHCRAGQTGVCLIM
Homeodomain-interacting protein kinase 2, sequence (Q9H2X6 whole entry, looked up): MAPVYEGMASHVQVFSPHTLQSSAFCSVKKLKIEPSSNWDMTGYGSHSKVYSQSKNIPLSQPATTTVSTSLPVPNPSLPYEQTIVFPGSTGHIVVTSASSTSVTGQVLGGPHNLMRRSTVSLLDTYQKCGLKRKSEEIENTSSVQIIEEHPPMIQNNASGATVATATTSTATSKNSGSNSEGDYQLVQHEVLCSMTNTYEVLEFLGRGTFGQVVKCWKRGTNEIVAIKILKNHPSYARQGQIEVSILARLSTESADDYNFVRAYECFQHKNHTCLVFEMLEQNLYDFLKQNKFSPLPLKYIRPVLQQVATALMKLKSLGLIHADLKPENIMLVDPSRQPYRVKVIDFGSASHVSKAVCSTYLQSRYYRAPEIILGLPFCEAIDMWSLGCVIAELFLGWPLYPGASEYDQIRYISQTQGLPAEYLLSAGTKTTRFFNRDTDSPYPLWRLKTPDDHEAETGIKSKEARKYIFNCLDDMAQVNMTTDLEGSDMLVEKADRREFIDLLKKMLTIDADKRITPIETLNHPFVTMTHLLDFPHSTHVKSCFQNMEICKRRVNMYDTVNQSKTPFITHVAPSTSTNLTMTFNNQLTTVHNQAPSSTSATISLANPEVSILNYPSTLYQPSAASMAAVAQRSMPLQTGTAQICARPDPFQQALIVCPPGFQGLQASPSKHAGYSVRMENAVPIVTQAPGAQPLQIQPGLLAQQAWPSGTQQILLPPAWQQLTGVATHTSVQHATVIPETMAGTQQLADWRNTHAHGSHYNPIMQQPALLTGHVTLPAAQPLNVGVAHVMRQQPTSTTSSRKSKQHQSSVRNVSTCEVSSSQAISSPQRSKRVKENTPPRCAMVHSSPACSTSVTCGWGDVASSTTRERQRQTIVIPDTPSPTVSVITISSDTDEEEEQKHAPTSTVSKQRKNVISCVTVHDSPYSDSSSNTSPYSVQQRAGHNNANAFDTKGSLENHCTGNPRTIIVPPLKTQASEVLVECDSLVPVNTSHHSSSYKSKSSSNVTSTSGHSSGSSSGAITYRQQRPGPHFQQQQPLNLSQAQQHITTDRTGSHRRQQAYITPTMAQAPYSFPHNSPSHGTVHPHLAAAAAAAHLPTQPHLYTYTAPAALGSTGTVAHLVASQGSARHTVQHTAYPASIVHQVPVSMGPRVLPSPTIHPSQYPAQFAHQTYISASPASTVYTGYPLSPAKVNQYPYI

As for `Cc1cc([C@@H](C)Nc2ccccc2C(=O)O)c2nc(N3CCOCC3)cc(=O)n2c1` [AZD-6482], the % of control in assay [1] came out at 100%.
For the compound `CN(C)CCOc1ccc(-c2nc(-c3ccncc3)c(-c3ccc4c(c3)CC/C4=N\O)[nH]2)cc1`, in [2], the % of control stood at 98%.
For `CCn1c(-c2nc3cc(C(=O)N4CCCC(N)C4)ccc3n2C)cc2ccccc21` (stereo not drawn), the pXC50 in assay [3] was < 4.4 M.
Take `CC[C@@H]1[C@H](F)C(=O)N[C@@H]1COc1nccc2cc(C(N)=O)c(OC)cc12` [ZIMLOVISERTIB]: the % of inhibition was -5.38% in assay [4] and -7.5% in [5].
In assay [6], `CCN(CC)CCCCNc1ncc2cc(-c3cc(OC)cc(OC)c3)c(NC(=O)NC(C)(C)C)nc2n1` came in with a % of control of 100%.
In assay [7], `Cc1cc(F)c(C(=O)Nc2cccc(-c3nncn3C(C)C)n2)cc1-n1cnc(C2CC2)c1` displayed a % of control of 94%.
Take `C=CC(=O)Nc1cccc(C(=O)Nc2ccc(Nc3cc(-c4[nH]c(SC)nc4C)ccn3)cc2)c1`: the % of control in [8] (at 1 µM) is 46%; in assay [8] (at 5 µM), 20%.
With `CC(=O)c1cc(-c2ccccc2OCC2CC2)c2ncccn12`, the % of control in assay [9] turned out to be 95%.
As for `O[C@H]1CC[C@H](Nc2ncc3nc(Nc4c(F)cc(F)cc4F)n([C@H]4CCOC4)c3n2)CC1`, the % of control was 35% in assay [10] and 86% in assay [11].
`COCC(=O)NC/C=C/c1ccc2ncnc(Nc3ccc(Oc4ccc(C)nc4)c(C)c3)c2c1` [CP-724714]: the % of control in [12] stood at 96%.
